This note sets out measurements from PubChem BioAssay (NCI).

SMILES strings stand for the structures. Several values for one entry are separate records, joined by “and”; a condition that tells them apart may be missing. Identical values can stand only once.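 The compound was tested at five concentrations on cells cultured in 96-well plates, with a 48-hour exposure period. At the GI50, growth is halved. The concentration for full growth arrest is given as TGI.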 Where only a bound is given, the exact number is not on record here.

The test system of the first experiment is NCI-H226 lung. Put plainly: growth of human tumour cells (NCI), 48 h.
`COc1cc2ccc(/C=C\[N+](=O)[O-])cc2cc1OC` displayed a TGI of 76.5 µM.
With `CCN(CC)CCCC(C)Nc1ccnc2cc(Oc3ccccc3)ccc12` (centres undefined), the GI50 was 8.4 µM and 14.9 µM; the TGI is 31.1 µM and > 100 µM.
With `C=C1CCC2C3(C)COC(c4ccc(N(C)C)cc4)OC3CCC2(C)C1C/C=C1/C(=O)OCC1O` (centres undefined), the GI50 was 6.09 µM and the TGI is 18.2 µM.
Turning to `COc1cc(OC(=O)c2ccccc2)cc2c1C(=O)C=CC2=O`, the TGI was 49.4 µM.
`CCN(CC)CCCCNc1c2ccccc2[n+](C)c2c1[nH]c1ccccc12`: the GI50 is 0.202 µM and the TGI worked out at 1.18 µM.
On the same counts, the results for `COc1cc(NC(C)CCCNC2CN3CCC2CC3)c2ncccc2c1` (centres undefined) are 13.6 µM and 27.7 µM.
On the same counts, the results for `COc1ccc(C(=O)c2cc(OC)c(OC)c(OC)c2)cc1OC(=O)CCl` are 11.3 µM and > 100 µM.
The like results for `CN[C@@H](C)C(=O)N[C@H](C(=O)N1CCC[C@H]1C(=O)Nc1snnc1-c1ccccc1)C1CCCCC1` were, in that order, > 100 µM and > 100 µM.
Regarding `COc1ccc(/C(COc2ccc3c(=O)cc(-c4ccccc4)oc3c2)=N\O)cc1`, the GI50 is 17.7 µM and the TGI was > 50 µM.
The like results for `CC(C)(C)OC(=O)N1CCN(CCn2cc(C(F)(F)F)c3c(Cl)ncnc32)CC1` were, in that order, 20 µM and 43.3 µM.
In the case of `FC(F)(F)c1ccc(Nc2nc(-c3c(C(F)(F)F)nc4ccccn34)cs2)cc1`, the GI50 is 0.358 µM and the TGI is 4.49 µM.
On the same counts, the results for `CN(C)CCN1C(=O)c2ccccc2N(C)c2ccccc21` are > 100 µM and > 100 µM.

In the next experiment the test system is MOLT-4 leukemia. The experiment in a line: growth of human tumour cells (NCI), 48 h.
For `COc1cc2ccc(/C=C\[N+](=O)[O-])cc2cc1OC`, the TGI worked out at 19.1 µM.
Regarding `CCN(CC)CCCC(C)Nc1ccnc2cc(Oc3ccccc3)ccc12` (centres undefined), the GI50 was 4.32 µM and 9.05 µM; the TGI is 17.8 µM and 82.8 µM.
`C=C1CCC2C3(C)COC(c4ccc(N(C)C)cc4)OC3CCC2(C)C1C/C=C1/C(=O)OCC1O` (centres undefined): the GI50 is 1.97 µM and the TGI stood at 5.68 µM.
As to `COc1cc(OC(=O)c2ccccc2)cc2c1C(=O)C=CC2=O`, the TGI is 14.6 µM.
In the case of `CCN(CC)CCCCNc1c2ccccc2[n+](C)c2c1[nH]c1ccccc12`, the GI50 was 0.269 µM and the TGI stood at 23.8 µM.
The like results for `COc1cc(NC(C)CCCNC2CN3CCC2CC3)c2ncccc2c1` (centres undefined) were, in that order, 12.8 µM and 31.8 µM.
The like results for `COc1ccc(C(=O)c2cc(OC)c(OC)c(OC)c2)cc1OC(=O)CCl` were, in that order, < 0.0209 µM and > 100 µM.
The like results for `CN[C@@H](C)C(=O)N[C@H](C(=O)N1CCC[C@H]1C(=O)Nc1snnc1-c1ccccc1)C1CCCCC1` were, in that order, 36.6 µM and > 100 µM.
On to `COc1ccc(/C(COc2ccc3c(=O)cc(-c4ccccc4)oc3c2)=N\O)cc1`, for which the GI50 was > 50 µM and the TGI is > 50 µM.
Regarding `CC(C)(C)OC(=O)N1CCN(CCn2cc(C(F)(F)F)c3c(Cl)ncnc32)CC1`, the GI50 is 2.62 µM and the TGI is 6.6 µM.
On the same counts, the results for `FC(F)(F)c1ccc(Nc2nc(-c3c(C(F)(F)F)nc4ccccn34)cs2)cc1` are 0.146 µM and > 28.7 µM.
As for `CN(C)CCN1C(=O)c2ccccc2N(C)c2ccccc21`, the GI50 is > 100 µM and the TGI was > 100 µM.

For the next experiment, the system named is NCI-H23 lung. The experiment in a line: growth of human tumour cells (NCI), 48 h.
In turn, `COc1cc2ccc(/C=C\[N+](=O)[O-])cc2cc1OC` had a TGI of 6.98 µM.
Turning to `CCN(CC)CCCC(C)Nc1ccnc2cc(Oc3ccccc3)ccc12` (centres undefined), the GI50 is 10.4 µM and 22.8 µM; the TGI was 28.7 µM and > 100 µM.
Turning to `C=C1CCC2C3(C)COC(c4ccc(N(C)C)cc4)OC3CCC2(C)C1C/C=C1/C(=O)OCC1O` (centres undefined), the GI50 was 4.37 µM and the TGI came to 15.7 µM.
`COc1cc(OC(=O)c2ccccc2)cc2c1C(=O)C=CC2=O` had a TGI of 33.3 µM.
With `CCN(CC)CCCCNc1c2ccccc2[n+](C)c2c1[nH]c1ccccc12`, the GI50 was 0.221 µM and the TGI was 1.07 µM.
Consider `COc1cc(NC(C)CCCNC2CN3CCC2CC3)c2ncccc2c1` (centres undefined), for which the GI50 was 13.8 µM and the TGI came out at 29.6 µM.
Consider `COc1ccc(C(=O)c2cc(OC)c(OC)c(OC)c2)cc1OC(=O)CCl`, for which the GI50 was 0.0653 µM and the TGI was > 100 µM.
The like results for `CN[C@@H](C)C(=O)N[C@H](C(=O)N1CCC[C@H]1C(=O)Nc1snnc1-c1ccccc1)C1CCCCC1` were, in that order, 38.4 µM and > 100 µM.
The like results for `COc1ccc(/C(COc2ccc3c(=O)cc(-c4ccccc4)oc3c2)=N\O)cc1` were, in that order, 29.5 µM and > 50 µM.
On to `CC(C)(C)OC(=O)N1CCN(CCn2cc(C(F)(F)F)c3c(Cl)ncnc32)CC1`, for which the GI50 was 2 µM and the TGI stood at 4.32 µM.
On the same counts, the results for `FC(F)(F)c1ccc(Nc2nc(-c3c(C(F)(F)F)nc4ccccn34)cs2)cc1` are 0.0579 µM and 5.51 µM.
On the same counts, the results for `CN(C)CCN1C(=O)c2ccccc2N(C)c2ccccc21` are > 100 µM and > 100 µM.

Another experiment deals with HOP-62 NSCLC. Put plainly: growth of human tumour cells (NCI), 48 h.
`COc1cc2ccc(/C=C\[N+](=O)[O-])cc2cc1OC` displayed a TGI of 16.1 µM.
`CCN(CC)CCCC(C)Nc1ccnc2cc(Oc3ccccc3)ccc12` (centres undefined): the GI50 was 7.45 µM and 11.5 µM; the TGI was 21.7 µM and 37.4 µM.
On to `C=C1CCC2C3(C)COC(c4ccc(N(C)C)cc4)OC3CCC2(C)C1C/C=C1/C(=O)OCC1O` (centres undefined), for which the GI50 is 18.4 µM and the TGI turned out to be 33.3 µM.
Compound `COc1cc(OC(=O)c2ccccc2)cc2c1C(=O)C=CC2=O` had a TGI of 58.6 µM.
Consider `CCN(CC)CCCCNc1c2ccccc2[n+](C)c2c1[nH]c1ccccc12`, for which the GI50 was 0.683 µM and the TGI stood at 6.15 µM.
On the same counts, the results for `COc1cc(NC(C)CCCNC2CN3CCC2CC3)c2ncccc2c1` (centres undefined) are 11.9 µM and 24.8 µM.
The like results for `COc1ccc(C(=O)c2cc(OC)c(OC)c(OC)c2)cc1OC(=O)CCl` were, in that order, 0.224 µM and > 100 µM.
The like results for `CN[C@@H](C)C(=O)N[C@H](C(=O)N1CCC[C@H]1C(=O)Nc1snnc1-c1ccccc1)C1CCCCC1` were, in that order, 26.5 µM and > 100 µM.
Regarding `COc1ccc(/C(COc2ccc3c(=O)cc(-c4ccccc4)oc3c2)=N\O)cc1`, the GI50 is 26.1 µM and the TGI was > 50 µM.
The like results for `CC(C)(C)OC(=O)N1CCN(CCn2cc(C(F)(F)F)c3c(Cl)ncnc32)CC1` were, in that order, 2.19 µM and 4.91 µM.
On to `FC(F)(F)c1ccc(Nc2nc(-c3c(C(F)(F)F)nc4ccccn34)cs2)cc1`, for which the GI50 was 0.0564 µM and the TGI is 9.14 µM.
In the case of `CN(C)CCN1C(=O)c2ccccc2N(C)c2ccccc21`, the GI50 was > 100 µM and the TGI was > 100 µM.

Another experiment concerns DU-145 prostate. Put plainly: growth of human tumour cells (NCI), 48 h.
Regarding `COc1cc2ccc(/C=C\[N+](=O)[O-])cc2cc1OC`, the TGI was 4.39 µM.
In the case of `CCN(CC)CCCC(C)Nc1ccnc2cc(Oc3ccccc3)ccc12` (centres undefined), the GI50 was 5.73 µM and 54.6 µM; the TGI is 22.4 µM and > 100 µM.
For `C=C1CCC2C3(C)COC(c4ccc(N(C)C)cc4)OC3CCC2(C)C1C/C=C1/C(=O)OCC1O` (centres undefined), the GI50 is 3.01 µM and the TGI amounted to 10.4 µM.
Compound `COc1cc(OC(=O)c2ccccc2)cc2c1C(=O)C=CC2=O` displayed a TGI of 34.4 µM.
With `CCN(CC)CCCCNc1c2ccccc2[n+](C)c2c1[nH]c1ccccc12`, the GI50 was 0.182 µM and the TGI worked out at 11.5 µM.
On the same counts, the results for `COc1cc(NC(C)CCCNC2CN3CCC2CC3)c2ncccc2c1` (centres undefined) are 16.4 µM and 30.2 µM.
For the compound `COc1ccc(C(=O)c2cc(OC)c(OC)c(OC)c2)cc1OC(=O)CCl`, the GI50 was 0.0322 µM.
Regarding `CN[C@@H](C)C(=O)N[C@H](C(=O)N1CCC[C@H]1C(=O)Nc1snnc1-c1ccccc1)C1CCCCC1`, the GI50 is 65.4 µM and the TGI was > 100 µM.
On the same counts, the results for `COc1ccc(/C(COc2ccc3c(=O)cc(-c4ccccc4)oc3c2)=N\O)cc1` are 11.5 µM and > 47.4 µM.
Turning to `CC(C)(C)OC(=O)N1CCN(CCn2cc(C(F)(F)F)c3c(Cl)ncnc32)CC1`, the GI50 is 2.96 µM and the TGI was 9.2 µM.
The like results for `FC(F)(F)c1ccc(Nc2nc(-c3c(C(F)(F)F)nc4ccccn34)cs2)cc1` were, in that order, 0.0402 µM and 2.15 µM.
On the same counts, the results for `CN(C)CCN1C(=O)c2ccccc2N(C)c2ccccc21` are > 100 µM and > 100 µM.
